Several values for one entry are separate records, joined by “and”; a condition that tells them apart may be missing. Equal entries are not always repeated. Where two headings read alike, the source gives them in different places. Where a SMILES comes first, the peptide text is derived from it. Where no end group is shown, it is not given here.
What was measured:
[1] = system: CHIKV 181/25; assay: microbe, parasite or virus in culture; conditions: Chikungunya virus, Vero
[2] = system: YFV 17D
[3] = system: JEV 14-14-2
[4] = system: DENV-2 New Guinea C
[5] = system: DENV-4 H241
[6] = system: DENV-3 H87
[7] = system: DENV-1 PRS41393
[8] = system: human erythrocyte cells
[9] = system: CHIKV 181/25
[10] = in vitro; conditions: African green monkey
[11] = system: DENV-2 New Guinea C; assay: microbe, parasite or virus in culture; conditions: Dengue virus, DENV2, Vero
[12] = system: DENV-3 H87; assay: microbe, parasite or virus in culture; conditions: Dengue virus, DENV3, Vero, 0 h
[13] = system: JUNV Candid #1; assay: microbe, parasite or virus in culture; conditions: Mammarenavirus juninense, Vero
[14] = system: LACV H44-71017; assay: organism not typed; assay type: cell-based, LaCrosse encephalitis virus; conditions: Vero
[15] = system: RVFV MP12; assay: microbe, parasite or virus in culture; conditions: Rift Valley fever virus, Vero, 0 h
[16] = system: Vero cells; conditions: African green monkey
[17] = system: YFV 17D; assay: microbe, parasite or virus in culture; conditions: Yellow fever virus, Vero
[18] = system: DENV-1 PRS41393; assay: microbe, parasite or virus in culture; conditions: Dengue virus, DENV1, Vero
[19] = system: DENV-4 H241; assay: microbe, parasite or virus in culture; conditions: Dengue virus, DENV4, Vero
[20] = system: panel of enveloped viruses (DENV, JEV, YFV, CHIKV and others)
[21] = system: Marburg virus (MARV)
[22] = system: Ebola virus (EBOV)
[23] = system: influenza A/Hong Kong/1/1968 virus (H3N2); assay: microbe, parasite or virus in culture; conditions: H3N2, MDCK
[24] = system: S. aureus (ATCC 25923)
[25] = read-out: EC50 Values for the Indicated Virus

`O=c1cnn([C@@H]2O[C@H](CO)[C@@H](O)[C@H]2O)c(=O)[nH]1` [6-azauridine] showed an EC50 [1] of 0.29 µM.
With `CC[C@H](C)[C@H](NC(=O)[C@H](Cc1c[nH]c2ccccc12)NC(=O)[C@H](CC(=O)O)NC(=O)[C@H](Cc1c[nH]c2ccccc12)NC(=O)[C@@H](NC(=O)[C@H](CC(=O)O)NC(=O)[C@H](CCCNC(=N)N)NC(=O)[C@H](CC(C)C)NC(=O)[C@H](Cc1c[nH]c2ccccc12)NC(=O)[C@H](CO)NC(=O)CNC(=O)[C@@H](N)CO)C(C)C)C(=O)N[C@@H](CS)C(=O)N[C@H](C(=O)N[C@H](C(=O)N[C@@H](CC(C)C)C(=O)N[C@H](C(=O)N[C@@H](CC(=O)O)C(=O)N[C@@H](Cc1ccccc1)C(=O)N[C@@H](CCCCN)C(=O)N[C@H](C(=O)N[C@@H](Cc1c[nH]c2ccccc12)C(=O)N[C@@H](CC(C)C)C(=O)N[C@@H](CCC(N)=O)C(=O)N[C@@H](CO)C(=O)N[C@@H](CCCCN)C(=O)N[C@@H](CC(C)C)C(=O)O)[C@@H](C)O)[C@@H](C)O)C(C)C)[C@@H](C)O` [AH, reference compound] the “Therapeutic Index (CC50/EC50)” value [2] was 5.87, the “Therapeutic Index (CC50/EC50)” value [3] was 236.04 and the “Therapeutic Index (CC50/EC50)” value ([4]; -2 New Guinea C) was 708.11. For the same compound, the “Therapeutic Index (CC50/EC50)” value ([5]; -4 H241) was 36.84, the “Therapeutic Index (CC50/EC50)” value ([6]; -3 H87) was 17.65 and the “Therapeutic Index (CC50/EC50)” value ([7]; -1 PRS41393) was 49.98. For the same compound, the MHC [8] was 50 µM, the “Therapeutic Index (CC50/EC50)” value [9] was 21.21 and the EC50 [10] was 127 µM. The CC50 [10] was 192 µM.
In the case of `Nc1ccn(C[C@@H](CO)OCP(=O)(O)O)c(=O)n1` [Cidofovir], the CC50 [10] is reported as greater than 375 µM.
In the case of `NC(=O)c1ncn([C@@H]2O[C@H](CO)[C@@H](O)[C@H]2O)n1` [Ribavirin], the EC50 [2] is reported as 212 µM and 170 µM, the EC50 [11] is reported as 267 µM and the EC50 ([11]; 0 h) is reported as 360 µM. The EC50 [12] was 176 µM, the EC50 [13] was 73.2 µM and the EC50 ([13]; 0 h) was 63.7 µM. The EC50 [4] was 203 µM and 185 µM, the EC50 [14] was 161 µM and the EC50 ([14]; 0 h) was 143 µM. For the same compound, the EC50 [5] was 209 µM and 284 µM, the EC50 [15] was 140 µM and the CC50 [16] was 577 µM. The EC50 [17] was 203 µM, the EC50 ([17]; 0 h) was 258 µM and the EC50 [18] was 144 µM. For the same compound, the EC50 ([18]; 0 h) was 206 µM, the CC50 [10] was greater than 750 µM and the EC50 [19] was 253 µM. It also gave an EC50 ([19]; 0 h) of 395 µM.
For `CC(C)C[C@H](NC(=O)[C@H](CCCCN)NC(=O)[C@H](CO)NC(=O)[C@H](CCC(N)=O)NC(=O)[C@H](CC(C)C)NC(=O)[C@H](Cc1c[nH]c2ccccc12)NC(=O)[C@@H](NC(=O)[C@H](Cc1c[nH]c2ccccc12)NC(=O)[C@@H](NC(=O)[C@H](CC(=O)O)NC(=O)[C@H](CCCNC(=N)N)NC(=O)[C@H](CC(C)C)NC(=O)[C@H](Cc1c[nH]c2ccccc12)NC(=O)[C@H](CO)NC(=O)CNC(=O)[C@H](CO)NC(=O)CCOCCOCCOCCOCCOCCOCCOCCOCCOCCOCCOCCOCCNC(=O)CCOCCOCCOCCOCCOCCOCCOCCOCCOCCOCCOCCOCCN)C(C)C)[C@@H](C)O)C(N)=O` [TSGX1X] (HELM PEPTIDE1{[NCCOCCOCCOCCOCCOCCOCCOCCOCCOCCOCCOCCOCCC(=O)[*:2]].[O=C(CCOCCOCCOCCOCCOCCOCCOCCOCCOCCOCCOCCOCCN[*:1])[*:2]].S.G.S.W.L.R.D.V.W.T.W.L.Q.S.K.L.[am]}$$$$V2.0), the “antiviral activities of pegylated peptides” value [20] was “reduced”, the “antiviral activity of pegylated peptides” value [20] was “preserve strong antiviral activity” and the “efficacy against infection” value [20] was “effective”. The EC50 [2] was 22.4 µM, the EC50 [21] was 14.3 µM and the EC50 [21, 25] was 14.3 µM. For the same compound, the EC50 ([3]; 0 h) was 1.27 µM, the EC50 [4] was 3.86 µM and the EC50 [5] was 3.54 µM. The EC50 [22] was 13.5 µM, the EC50 [22, 25] was 13.5 µM and the EC50 [6] was 2.28 µM. It also gave an EC50 [7] of 4.98 µM and an EC50 ([9]; 0 h) of 27.2 µM.
For `CC(C)C[C@H](NC(=O)[C@H](CCCCN)NC(=O)[C@H](CO)NC(=O)[C@H](CCC(N)=O)NC(=O)[C@H](CC(C)C)NC(=O)[C@H](Cc1c[nH]c2ccccc12)NC(=O)[C@@H](NC(=O)[C@H](Cc1c[nH]c2ccccc12)NC(=O)[C@@H](NC(=O)[C@H](CC(=O)O)NC(=O)[C@H](CCCNC(=N)N)NC(=O)[C@H](CC(C)C)NC(=O)[C@H](Cc1c[nH]c2ccccc12)NC(=O)[C@H](CO)NC(=O)[C@H](CO)NC(=O)CNC(=O)CCOCCOCCOCCOCCOCCOCCOCCOCCOCCOCCOCCOCCNC(=O)CCOCCOCCOCCOCCOCCOCCOCCOCCOCCOCCOCCOCCN)C(C)C)[C@@H](C)O)C(N)=O` [TSGX2X] (HELM PEPTIDE1{[NCCOCCOCCOCCOCCOCCOCCOCCOCCOCCOCCOCCOCCC(=O)[*:2]].[O=C(CCOCCOCCOCCOCCOCCOCCOCCOCCOCCOCCOCCOCCN[*:1])[*:2]].G.S.S.W.L.R.D.V.W.T.W.L.Q.S.K.L.[am]}$$$$V2.0), the “antiviral activities of pegylated peptides” value [20] was “reduced”, the “antiviral activity of pegylated peptides” value [20] was “preserve strong antiviral activity” and the “efficacy against infection” value [20] was “effective”. It also gave an EC50 [21] of 44.3 µM, an EC50 [21, 25] of 44.3 µM and an EC50 [22] of 29.9 µM. It also gave an EC50 [22, 25] of 29.9 µM.
With `CC(=O)N[C@H]1[C@H]([C@H](O)[C@H](O)CO)OC(C(=O)O)=C[C@@H]1N=C(N)N` [Zanamivir] the EC50 [23] was 4.52 µM.
In the case of AGSWLRDILTLLQSAL [TSG009], the “MIC in PB” value ([24]; 10 mM potassium phosphate buffer, pH 7.2) is reported as 1.5 µM, the “MIC in PBS” value ([24]; phosphate-buffered saline) is reported as 1.5 µM and the MHC [8] is reported as 1.5 µM.
